Target: T1, EpHCT (Echinacea purpurea, UniProt A0A890VVY1)
T1 construct: full-length CDS, N-terminal 6xHis (pDEST17), E. coli BL21(DE3), Ni-NTA purified
Test: in vitro enzyme assay, LC-HRMS product detection
Assay type: biochemical

T1 sequence (A0A890VVY1 1-434): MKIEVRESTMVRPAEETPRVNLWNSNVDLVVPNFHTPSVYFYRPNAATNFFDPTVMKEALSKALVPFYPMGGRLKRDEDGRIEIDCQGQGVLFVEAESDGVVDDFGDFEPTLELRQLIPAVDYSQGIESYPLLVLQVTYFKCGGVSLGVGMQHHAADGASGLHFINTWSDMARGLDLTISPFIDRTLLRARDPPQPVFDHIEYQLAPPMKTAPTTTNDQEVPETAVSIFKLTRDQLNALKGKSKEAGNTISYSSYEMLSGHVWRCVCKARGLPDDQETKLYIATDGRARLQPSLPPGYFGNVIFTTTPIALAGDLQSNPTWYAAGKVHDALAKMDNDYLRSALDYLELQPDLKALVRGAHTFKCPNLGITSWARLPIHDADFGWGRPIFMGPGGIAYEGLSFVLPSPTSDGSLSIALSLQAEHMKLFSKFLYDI

SMILES	in vitro enzyme assay, LC-HRMS product detection (p-coumaroyl CoA or caffeoyl CoA as acyl donor)	in vitro enzyme assay, LC-HRMS product detection (shikimic acid as acyl acceptor)
O=C(O)C1=C[C@@H](O)[C@@H](O)[C@H](O)C1 [shikimic acid]	production of p-coumaroyl shikimic acid using p-coumaroyl CoA and shikimic acid as substrates	
CC(C)(COP(=O)(O)OP(=O)(O)OC[C@H]1O[C@@H](n2cnc3c(N)ncnc32)[C@H](O)[C@@H]1OP(=O)(O)O)[C@@H](O)C(=O)NCCC(=O)NCCSC(=O)/C=C/c1ccc(O)cc1 [p-coumaroyl CoA]		production of p-coumaroyl shikimic acid using p-coumaroyl CoA and shikimic acid as substrates
